Experimental data reported in patent US20040028749A1, “Treating inflammation and associated complications” (priority 2000, published 2004).

System: tracheal rings
Experiment: NO-mediated relaxation of preconstricted tracheal rings
Design: species or system rat
Conditions: absence of peroxidases
From the text: Normal rats were sacrificed and their trachea removed. Under the dissecting microscope, each trachea was freed of adventitia and fat tissue. A cylindrical airway segment of 3 mm length was isolated from the midtrachea of each animal and placed in a modified Krebs-Henseleit (KH) solution of the following composition (mM): NaCl, 118.2; NaHCO3, […], 4.6; KH2PO4, 1.2; MgSO4, 1.2; CaCl2 and dextrose, […], with a pH adjusted to 7.4. The solution was continuously aerated with 5% […] balanced with O2. […] Generated forces were continuously monitored and recorded on a rectilinear chart recorder. […]
A cumulative concentration-response curve to bethanecol (3×10^−8 to 10^−3 M) was obtained for each cylinder. The concentration of bethanecol that elicited 50-75% of maximal response (ED 50-75) was determined. […] The percent relaxation from the precontracted state was calculated for each cylinder. The percent relaxation in response to EFS was calculated from the reduction in tension (in grams) in relation to baseline tension in the precontracted state, each tracheal segment serving as its own control (before and after EFS exposure). […]
The effect of peroxidases on the concentration dependence of NO-mediated relaxation of preconstricted tracheal rings was quantified. […]

[N]=O [NO, nitric oxide]
NO concentration at which relaxation reached a maximum: ~4 µM
